One assay concerns the target T1, CDK1/Cyclin B1 (Homo sapiens, UniProt P06493).
T1 construct: GST; purchased BPS 40454
In words: CDK1/Cyclin B1 enzymatic phosphorylation assay (Caliper mobility shift). Conditions: read-out: Enzyme CDK1/cyclin B1 IC50. Format: biochemical. As for the experimental part: (§1) Reactions proceeded until between 10% to 20% total peptides were phosphorylated at room temperature (25° C.) and were terminated with 35 mM 2,2′,2″,2′″-(ethane-1,2-diyldinitrilo)tetraacetic acid (EDTA). Product was detected using the Caliper mobility shift detection method where the phosphorylated peptide (product) and substrate were electrophoretically separated and measured. Percent activity was plotted against log concentration of compound and points to generate an apparent IC50.

Another assay has as its target T2, CDK2/Cyclin E (Homo sapiens, UniProt P24941).
T2 construct: purchased Eurofins 14-475
The experiment in a line: CDK2/Cyclin E enzymatic phosphorylation assay (Caliper mobility shift). Further: 1.0 mM ATP or ATP Km. It counts as biochemical. Conditions: read-out: Enzyme CDK2/cyclin E IC50. As for the experimental part: as §1

The source of these data is US20260217717A1, “CDK2 INHIBITORS” (BLUEPRINT MEDICINES CORPORATION, priority 2023, published 2026).

SMILES strings stand for the structures.

T1 sequence (P06493 whole entry): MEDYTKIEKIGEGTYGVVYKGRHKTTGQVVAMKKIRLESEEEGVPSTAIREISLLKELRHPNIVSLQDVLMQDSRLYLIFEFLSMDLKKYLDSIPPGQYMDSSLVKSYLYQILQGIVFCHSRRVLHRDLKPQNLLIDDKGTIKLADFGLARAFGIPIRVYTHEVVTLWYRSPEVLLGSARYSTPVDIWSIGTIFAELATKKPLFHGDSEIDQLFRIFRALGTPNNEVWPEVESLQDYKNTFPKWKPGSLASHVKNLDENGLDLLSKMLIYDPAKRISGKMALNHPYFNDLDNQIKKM
T1 sequence (P14635 whole entry partner): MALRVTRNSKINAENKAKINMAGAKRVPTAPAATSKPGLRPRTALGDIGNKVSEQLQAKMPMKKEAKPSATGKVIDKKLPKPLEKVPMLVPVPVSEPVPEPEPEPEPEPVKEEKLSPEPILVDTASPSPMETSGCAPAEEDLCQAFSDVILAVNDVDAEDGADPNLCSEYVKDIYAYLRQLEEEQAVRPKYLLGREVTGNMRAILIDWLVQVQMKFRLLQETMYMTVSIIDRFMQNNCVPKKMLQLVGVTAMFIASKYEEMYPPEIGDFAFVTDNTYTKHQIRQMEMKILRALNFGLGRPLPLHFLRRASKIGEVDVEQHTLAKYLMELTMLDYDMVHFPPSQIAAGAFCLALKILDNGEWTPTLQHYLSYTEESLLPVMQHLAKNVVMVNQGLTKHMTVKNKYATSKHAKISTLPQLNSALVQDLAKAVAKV

Regarding `C[C@@H](c1ccccc1F)n1ncc2ncc(Nc3cc(C4COC4)[nH]n3)nc21` [Example 52, (S)-1-(1-(2-fluorophenyl)ethyl)-N-(5-(oxetan-3-yl)-1H-pyrazol-3-yl)-1H-pyrazolo[3,4-b]pyrazin-6-amine], the values for the IC50 on CDK1/Cyclin B1 and on CDK2/Cyclin E were 104 nM and 0.2 nM, respectively.

Consider `CC(C)c1cc(Nc2cnc3cnn(CCCO)c3n2)n[nH]1` [Example 1, 3-(6-((5-isopropyl-1H-pyrazol-3-yl)amino)-1H-pyrazolo[3,4-b]pyrazin-1-yl)propan-1-ol], for which the IC50 amounted to 2990 nM on CDK1/Cyclin B1 and 21.5 nM on CDK2/Cyclin E.

For `CC(C)c1cc(Nc2cnc3cnn([C@H]4CC[C@H](O)CC4)c3n2)n[nH]1` [Example 57, (1r,4r)-4-(6-((5-isopropyl-1H-pyrazol-3-yl)amino)-1H-pyrazolo[3,4-b]pyrazin-1-yl)cyclohexan-1-ol], the IC50 at CDK1/Cyclin B1 amounted to 174 nM; on CDK2/Cyclin E it was 1 nM.

As for `Cc1nn(Cc2cccnc2)c2nc(Nc3cc(C4COC4)[nH]n3)cnc12` [Example 4, 3-methyl-N-(5-(oxetan-3-yl)-1H-pyrazol-3-yl)-1-(pyridin-3-ylmethyl)-1H-pyrazolo[3,4-b]pyrazin-6-amine], the IC50 at CDK1/Cyclin B1 amounted to 5000 nM; on CDK2/Cyclin E, 36.3 nM.

`C[C@@H](c1ccccn1)n1ncc2ncc(Nc3cc(C4COC4)[nH]n3)nc21` [Example 55, (S)-N-(5-(oxetan-3-yl)-1H-pyrazol-3-yl)-1-(1-(pyridin-2-yl)ethyl)-1H-pyrazolo[3,4-b]pyrazin-6-amine]: the IC50 came to 951 nM on CDK1/Cyclin B1 and 2 nM on CDK2/Cyclin E.

Turning to `CC[C@H]([C@H](C)O)n1ncc2ncc(Nc3cc(C(C)C)[nH]n3)nc21` (single isomer, unassigned) [Example 14, (2S,3R)-3-(6-((5-isopropyl-1H-pyrazol-3-yl)amino)-1H-pyrazolo[3,4-b]pyrazin-1-yl)pentan-2-ol or (2S,3S)-3-(6-((5-isopropyl-1H-pyrazol-3-yl)amino)-1H-pyrazolo[3,4-b]pyrazin-1-yl)pentan-2-ol], the IC50 was determined as 3130 nM at CDK1/Cyclin B1 and 23.9 nM on CDK2/Cyclin E.

As to `c1ccc(Cn2ncc3ncc(Nc4cc(C5COC5)[nH]n4)nc32)cc1` [Example 44, 1-benzyl-N-(5-(oxetan-3-yl)-1H-pyrazol-3-yl)-1H-pyrazolo[3,4-b]pyrazin-6-amine], the IC50 at CDK1/Cyclin B1 stood at 2220 nM; on CDK2/Cyclin E, 18.5 nM.

In the case of `CC(C)c1cc(Nc2cnc3cnn(CC4CCNCC4)c3n2)n[nH]1` [Example 62, N-(5-isopropyl-1H-pyrazol-3-yl)-1-(piperidin-4-ylmethyl)-1H-pyrazolo[3,4-b]pyrazin-6-amine], the IC50 turned out to be 1930 nM at CDK1/Cyclin B1 and 16 nM at CDK2/Cyclin E.

As to `Cc1nn(CC2CCOCC2)c2nc(Nc3cc(C4COC4)[nH]n3)cnc12` [Example 8, 3-methyl-N-(5-(oxetan-3-yl)-1H-pyrazol-3-yl)-1-((tetrahydro-2H-pyran-4-yl)methyl)-1H-pyrazolo[3,4-b]pyrazin-6-amine], the IC50 is 2580 nM on CDK1/Cyclin B1 and 37.1 nM at CDK2/Cyclin E.

On to `Cc1cc(Nc2cnc3cnn(C[C@H]4CCCOC4)c3n2)n[nH]1` [Example 5, (R)-N-(5-methyl-1H-pyrazol-3-yl)-1-((tetrahydro-2H-pyran-3-yl)methyl)-1H-pyrazolo[3,4-b]pyrazin-6-amine], for which the IC50 at CDK1/Cyclin B1 is 5230 nM; at CDK2/Cyclin E, 57.6 nM.

Regarding `Cc1cc(Nc2cnc3cnn([C@@H](C)c4cccnc4Cl)c3n2)n[nH]1` [Example 26, (S)-1-(1-(2-chloropyridin-3-yl)ethyl)-N-(5-methyl-1H-pyrazol-3-yl)-1H-pyrazolo[3,4-b]pyrazin-6-amine], the values for the IC50 on CDK1/Cyclin B1 and on CDK2/Cyclin E were 1060 nM and 4.2 nM, respectively.

`Cc1cc(Nc2cnc3c(Cl)nn([C@@H](C)c4cccnc4F)c3n2)n[nH]1` [Example 28, (S)-3-chloro-1-(1-(2-fluoropyridin-3-yl)ethyl)-N-(5-methyl-1H-pyrazol-3-yl)-1H-pyrazolo[3,4-b]pyrazin-6-amine]: the IC50 at CDK1/Cyclin B1 amounted to 2700 nM; at CDK2/Cyclin E, 5.6 nM.

In the case of `O[C@H]1CC[C@H](n2ncc3ncc(Nc4cc(C5COC5)[nH]n4)nc32)CC1` [Example 38, (1r,4r)-4-(6-((5-(oxetan-3-yl)-1H-pyrazol-3-yl)amino)-1H-pyrazolo[3,4-b]pyrazin-1-yl)cyclohexan-1-ol], the IC50 was 509 nM on CDK1/Cyclin B1 and 3.5 nM at CDK2/Cyclin E.

Consider `CCc1cc(Nc2cnc3cnn(CC4CCOCC4)c3n2)n[nH]1` [Example 37, N-(5-ethyl-1H-pyrazol-3-yl)-1-((tetrahydro-2H-pyran-4-yl)methyl)-1H-pyrazolo[3,4-b]pyrazin-6-amine], for which the IC50 on CDK1/Cyclin B1 amounted to 533 nM; on CDK2/Cyclin E, 5.4 nM.

For `CC(C)c1cc(Nc2cnc3cnn(CC4CCOCC4)c3n2)n[nH]1` [Example 30, N-(5-isopropyl-1H-pyrazol-3-yl)-1-((tetrahydro-2H-pyran-4-yl)methyl)-1H-pyrazolo[3,4-b]pyrazin-6-amine], the IC50 on CDK1/Cyclin B1 came to 113 nM; at CDK2/Cyclin E, 0.6 nM.

Take `COc1ncccc1[C@H](C)n1ncc2ncc(Nc3cc(C)[nH]n3)nc21` [Example 23, (S)-1-(1-(2-methoxypyridin-3-yl)ethyl)-N-(5-methyl-1H-pyrazol-3-yl)-1H-pyrazolo[3,4-b]pyrazin-6-amine]: the figures for the IC50 on CDK1/Cyclin B1 and on CDK2/Cyclin E were 1540 nM and 14.1 nM, respectively.

In the case of `c1nc2cnn(C[C@H]3[C@@H]4COC[C@@H]43)c2nc1Nc1cc(C2COC2)[nH]n1` [Example 16, 1-(((1R,5S,6s)-3-oxabicyclo[3.1.0]hexan-6-yl)methyl)-N-(5-(oxetan-3-yl)-1H-pyrazol-3-yl)-1H-pyrazolo[3,4-b]pyrazin-6-amine], the IC50 at CDK1/Cyclin B1 is 1020 nM; on CDK2/Cyclin E, 8.5 nM.

For the compound `CC(C)c1cc(Nc2cnc3cnn(C[C@@H]4CCOC4)c3n2)n[nH]1` (single isomer, unassigned) [Example 12, (S)-N-(5-isopropyl-1H-pyrazol-3-yl)-1-((tetrahydrofuran-3-yl)methyl)-1H-pyrazolo[3,4-b]pyrazin-6-amine or (R)-N-(5-isopropyl-1H-pyrazol-3-yl)-1-((tetrahydrofuran-3-yl)methyl)-1H-pyrazolo[3,4-b]pyrazin-6-amine], the IC50 on CDK1/Cyclin B1 was found to be 119 nM; at CDK2/Cyclin E, 0.5 nM.

As for `C[C@@H](c1cccnc1)n1ncc2ncc(Nc3cc(C(F)F)[nH]n3)nc21` [Example 2, (S)-N-(5-(difluoromethyl)-1H-pyrazol-3-yl)-1-(1-(pyridin-3-yl)ethyl)-1H-pyrazolo[3,4-b]pyrazin-6-amine], the IC50 at CDK1/Cyclin B1 was found to be 6030 nM; at CDK2/Cyclin E it was 22.8 nM.

Consider `Fc1ccc(Cn2ncc3ncc(Nc4cc(C5COC5)[nH]n4)nc32)cn1` [Example 48, 1-((6-fluoropyridin-3-yl)methyl)-N-(5-(oxetan-3-yl)-1H-pyrazol-3-yl)-1H-pyrazolo[3,4-b]pyrazin-6-amine], for which the IC50 was 1840 nM on CDK1/Cyclin B1 and 13.1 nM on CDK2/Cyclin E.

For the compound `Fc1ccccc1Cn1ncc2ncc(Nc3cc(C4COC4)[nH]n3)nc21` [Example 45, 1-(2-fluorobenzyl)-N-(5-(oxetan-3-yl)-1H-pyrazol-3-yl)-1H-pyrazolo[3,4-b]pyrazin-6-amine], the IC50 on CDK1/Cyclin B1 came to 1380 nM; at CDK2/Cyclin E, 5.3 nM.

In the case of `C[C@H](C1CCOCC1)n1ncc2ncc(Nc3cc(C4COC4)[nH]n3)nc21` [Example 43, (R)-N-(5-(oxetan-3-yl)-1H-pyrazol-3-yl)-1-(1-(tetrahydro-2H-pyran-4-yl)ethyl)-1H-pyrazolo[3,4-b]pyrazin-6-amine], the IC50 at CDK1/Cyclin B1 was 1650 nM; at CDK2/Cyclin E, 21.4 nM.
